Experimental data taken from publication PMC10208593 (Journal of molecular structure, 2023).
Entries after “also recorded” stand apart in the source; their conditions may differ. Where two headings read alike, the source gives them in different places.

How the values were obtained:
Huh7 [1] = assay: SRB cytotoxicity assay, Huh7; type: cell-based; details: Homo sapiens
MCF-7 = assay: SRB cytotoxicity assay, MCF-7; type: cell-based; details: Homo sapiens, MCF7, 72 h, read-out: IC50 (μM) ± S.D. MCF-7
HCT116 = assay: SRB cytotoxicity assay, HCT116; type: cell-based; details: Homo sapiens, HCT-116, 72 h, read-out: IC50 (μM) ± S.D. HCT116
HepG2 = assay: SRB cytotoxicity assay, HepG2; type: cell-based; details: Homo sapiens, HepG2, read-out: IC50 (μM) ± S.D. HepG2
Mahlavu [2] = assay: SRB cytotoxicity assay, Mahlavu; type: cell-based; details: Homo sapiens, read-out: IC50 (μM) ± S.D. Mahlavu
SNU475 = assay: SRB cytotoxicity assay, SNU475; type: cell-based; details: Homo sapiens, SNU-475, read-out: IC50 (μM) ± S.D. SNU475
[3] = target: tubulin obtained from bovine brains (Bos taurus, UniProt P81947+Q6B856); assay: Inhibition of [3H]colchicine binding to tubulin; details: for Colchicine binding % inhibition ± SD, 50 μM: 50 μM compound, tubulin 1 μM, [3H]colchicine 5 μM; for inhibition at 50 µM: read-out: Colchicine binding % inhibition ± SD, 50 μM
Sequence of tubulin obtained from bovine brains (Q6B856 whole entry): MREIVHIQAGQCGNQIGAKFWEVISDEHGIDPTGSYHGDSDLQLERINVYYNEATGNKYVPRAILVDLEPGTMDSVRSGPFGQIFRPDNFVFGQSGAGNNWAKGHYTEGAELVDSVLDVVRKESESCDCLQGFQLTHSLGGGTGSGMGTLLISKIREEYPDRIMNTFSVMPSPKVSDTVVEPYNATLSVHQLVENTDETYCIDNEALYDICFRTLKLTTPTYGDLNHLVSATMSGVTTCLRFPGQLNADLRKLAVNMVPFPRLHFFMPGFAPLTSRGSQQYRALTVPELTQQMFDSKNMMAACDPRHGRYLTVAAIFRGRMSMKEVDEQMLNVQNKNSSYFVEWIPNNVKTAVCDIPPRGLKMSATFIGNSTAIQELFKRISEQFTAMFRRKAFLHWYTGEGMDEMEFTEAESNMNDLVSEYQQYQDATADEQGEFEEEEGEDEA
Sequence of tubulin obtained from bovine brains (P81947 whole entry): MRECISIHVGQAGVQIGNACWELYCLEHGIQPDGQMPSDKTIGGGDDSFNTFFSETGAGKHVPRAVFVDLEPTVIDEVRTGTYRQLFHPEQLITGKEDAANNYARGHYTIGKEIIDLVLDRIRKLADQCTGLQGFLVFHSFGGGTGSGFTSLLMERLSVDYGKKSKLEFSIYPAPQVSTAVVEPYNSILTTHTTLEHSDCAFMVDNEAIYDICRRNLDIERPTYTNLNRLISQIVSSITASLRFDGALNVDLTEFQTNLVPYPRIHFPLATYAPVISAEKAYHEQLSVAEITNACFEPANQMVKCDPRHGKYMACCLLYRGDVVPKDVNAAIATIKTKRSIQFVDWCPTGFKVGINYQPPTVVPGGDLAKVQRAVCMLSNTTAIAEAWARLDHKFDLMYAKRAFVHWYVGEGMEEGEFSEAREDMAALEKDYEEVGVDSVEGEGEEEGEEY

Mahlavu [4] = assay: Real-time cell monitoring; type: cell-based, human; details: RT-CES, increasing concentrations, 72 h, vs DMSO control
Huh7 [5] = assay: Flow cytometry cell cycle analysis, Huh7; type: cell-based, human; details: propidium iodide; for cell cycle phase arrest, Huh7: 72 h at IC50 concentration; for cell cycle phase arrest, Huh7, higher concentration: 72 h at 10 μM
[6] = test system: Huh7, HepG2, Mahlavu and SNU475 cells; assay: Detection of apoptosis by Hoechst 33258 staining; type: cell-based, human; details: 48 h, IC100 concentrations, all four HCC lines
Mahlavu [7] = assay: Flow cytometry cell cycle analysis, Mahlavu; type: cell-based, human; details: propidium iodide; for cell cycle phase arrest, Mahlavu, higher concentration: 72 h at 10 μM; for cell cycle phase arrest, Mahlavu: 72 h at IC50 concentration
six cancer cell lines = assay: SRB assay, six cancer cell lines taken together; type: cell-based; details: Homo sapiens, read-out: IC50 range against the six cancer cell lines examined
[8] = Huh-7, 72 h, read-out: IC50 (μM) ± S.D. Huh7
[9] = Huh-7, read-out: IC50 (μM) ± S.D. Huh7 (HCC cell lines)

Row | Structure (SMILES) | IC50 (Huh7 [1]; [8]) [µM] | IC50 (MCF-7) [µM] | IC50 (HCT116) [µM] | further results
1 | COc1cc(NC(=O)c2cc(-c3c[nH]c4ccccc34)n[nH]2)cc(OC)c1OC [Compound 10, 3-(1H-Indol-3-yl)-N-(3,4,5-trimethoxyphenyl)-1H-pyrazole-5-carboxamide] | 1 ± 0.2 | 2.1 ± 0.1 | 2.5 ± 0.3 | IC50 (Huh7 [1]; [9]): 1 ± 0.2 µM; IC50 (HepG2): 2.9 ± 0.1 µM; IC50 (Mahlavu [2]): 2.7 ± 0.4 µM; IC50 (SNU475): 4.1 ± 2.1 µM; Colchicine binding % inhibition ± SD, 50 μM [3]: Inhibition was observed; inhibition at 50 µM [3]: 26 ± 7%; real-time cell growth (cell index) inhibition, Mahlavu (Mahlavu [4]): noticeable inhibition in cell growth in 6 μM concentration; cell cycle phase arrest, Huh7 (Huh7 [5]): arrest in the G0/G1 phase; apoptotic nuclear morphology (Hoechst staining) [6]: visible nuclear blebs or deformed nuclei
2 | CC(C)(C)c1ccc(NC(=O)c2cc(-c3c[nH]c4ccccc34)n[nH]2)cc1 [Compound 11, N-(4-(tert-Butyl)phenyl)-3-(1H-indol-3-yl)-1H-pyrazole-5-carboxamide] | 0.6 ± 0.4 | 1 ± 0.1 | 1.2 ± 0.5 | IC50 (Huh7 [1]; [9]): 0.6 ± 0.4 µM; IC50 (HepG2): 2.7 ± 0.9 µM; IC50 (Mahlavu [2]): 3.4 ± 0.8 µM; IC50 (SNU475): 4.3 ± 0.9 µM; inhibition at 50 µM [3]: 9.4 ± 2%; real-time cell growth (cell index) inhibition, Mahlavu (Mahlavu [4]): dose-dependent growth inhibition; cell cycle phase arrest, Huh7, higher concentration (Huh7 [5]): arrest in the S phase; cell cycle phase arrest, Huh7 (Huh7 [5]): did not cause a significant change; cell cycle phase arrest, Mahlavu, higher concentration (Mahlavu [7]): arrest in the S phase; cell cycle phase arrest, Mahlavu (Mahlavu [7]): arrest in the S phase; apoptotic nuclear morphology (Hoechst staining) [6]: visible nuclear blebs or deformed nuclei
3 | CSc1ccc(NC(=O)c2cc(-c3c[nH]c4ccccc34)n[nH]2)cc1 [Compound 12, 3-(1H-Indol-3-yl)-N-(4-(methylthio)phenyl)-1H-pyrazole-5-carboxamide] | 6.3 ± 1.6 | 2 ± 0.2 | 9 ± 1.9 | 
4 | COc1cc(CNC(=O)c2cc(-c3c[nH]c4ccccc34)n[nH]2)cc(OC)c1OC [Compound 13, 3-(1H-Indol-3-yl)-N-(3,4,5-trimethoxybenzyl)-1H-pyrazole-5-carboxamide] | 17.2 ± 2.1 | 17.9 ± 1 | 31 ± 2.4 | 
5 | O=C(Nc1ccccc1)c1cc(-c2c[nH]c3ccccc23)n[nH]1 [Compound 14, 3-(1H-Indol-3-yl)-N-phenyl-1H-pyrazole-5-carboxamide] | 16.8 ± 3.8 | 22.2 ± 1.8 | > 50 | 
6 | COc1ccc(NC(=O)c2cc(-c3c[nH]c4ccccc34)n[nH]2)cc1 [Compound 15, 3-(1H-Indol-3-yl)-N-(4-methoxyphenyl)-1H-pyrazole-5-carboxamide] | 8.6 ± 2.1 | 5.5 ± 0.5 | 11.9 ± 1 | 
7 | COc1cc(NC(=O)c2cc(-c3c[nH]c4ccccc34)n[nH]2)cc(OC)c1 [Compound 16, N-(3,5-Dimethoxyphenyl)-3-(1H-indol-3-yl)-1H-pyrazole-5-carboxamide] | 4.5 ± 0.1 | 2.6 ± 0.5 | 6.2 ± 1 | 
8 | COc1ccc(NC(=O)c2cc(-c3c[nH]c4ccccc34)n[nH]2)cc1OC [Compound 17, N-(3,4-Dimethoxyphenyl)-3-(1H-indol-3-yl)-1H-pyrazole-5-carboxamide] | 2.8 ± 1.2 | 1.7 ± 0.4 | 10.1 ± 0.7 | 
9 | COc1ccc(OC)c(NC(=O)c2cc(-c3c[nH]c4ccccc34)n[nH]2)c1 [Compound 18, N-(2,5-Dimethoxyphenyl)-3-(1H-indol-3-yl)-1H-pyrazole-5-carboxamide] | 0.6 ± 0.1 | 3.6 ± 0.4 | 1.4 ± 0.5 | IC50 (Huh7 [1]; [9]): 0.6 ± 0.2 µM; IC50 (HepG2): 1.3 ± 0.09 µM; IC50 (Mahlavu [2]): 2.9 ± 0.8 µM; IC50 (SNU475): 2.9 ± 1.13 µM; Colchicine binding % inhibition ± SD, 50 μM [3]: Inhibition was observed; inhibition at 50 µM [3]: 23 ± 3%; IC50 (six cancer cell lines): 0.6 to 3.6 µM; cell cycle phase arrest, Huh7, higher concentration (Huh7 [5]): cell cycle arrest in the G2/M phase; also recorded: cell cycle arrest at the G2/M phase; cell cycle phase arrest, Huh7 (Huh7 [5]): did not cause a significant change; cell cycle phase arrest, Mahlavu, higher concentration (Mahlavu [7]): cell cycle arrest in the G2/M phase; also recorded: cell cycle arrest at the G2/M phase; cell cycle phase arrest, Mahlavu (Mahlavu [7]): arrest in the G2/M phase; apoptotic nuclear morphology (Hoechst staining) [6]: visible nuclear blebs or deformed nuclei; also recorded: induced apoptotic cell death
10 | O=C(c1cc(-c2c[nH]c3ccccc23)n[nH]1)N1CCCCC1 [Compound 19, (3-(1H-Indol-3-yl)-1H-pyrazol-5-yl)(piperidin-1-yl)methanone] | 19.1 ± 1.8 | 21.7 ± 2 | 23 ± 3.5 | 
11 | O=C(c1cc(-c2c[nH]c3ccccc23)n[nH]1)N1CCOCC1 [Compound 20, (3-(1H-Indol-3-yl)-1H-pyrazol-5-yl)(morpholino)methanone] | > 50 | > 50 | > 50 | 
12 | CCCCNC(=O)c1cc(-c2c[nH]c3ccccc23)n[nH]1 [Compound 21, N-Butyl-3-(1H-indol-3-yl)-1H-pyrazole-5-carboxamide] | > 50 | 26.7 ± 0.5 | 23.1 ± 5.1 | 
13 | O=C(Nc1ccc(Cl)cc1)c1cc(-c2c[nH]c3ccccc23)n[nH]1 [Compound 22, N-(4-Chlorophenyl)-3-(1H-indol-3-yl)-1H-pyrazole-5-carboxamide] | > 50 | 29.8 ± 3.1 | > 50 | 
14 | O=C(Nc1ccc(Br)cc1)c1cc(-c2c[nH]c3ccccc23)n[nH]1 [Compound 23, N-(4-Bromophenyl)-3-(1H-indol-3-yl)-1H-pyrazole-5-carboxamide] | > 50 | 39.3 ± 1 | > 50 | 
15 | O=C(NCc1ccncc1)c1cc(-c2c[nH]c3ccccc23)n[nH]1 [Compound 24, 3-(1H-Indol-3-yl)-N-(pyridin-4-ylmethyl)-1H-pyrazole-5-carboxamide] | 30.4 ± 1.4 | 31.2 ± 2.6 | 33.2 ± 1 | 
16 | O=C(NCc1cccnc1)c1cc(-c2c[nH]c3ccccc23)n[nH]1 [Compound 25, 3-(1H-Indol-3-yl)-N-(pyridin-3-ylmethyl)-1H-pyrazole-5-carboxamide] | 29.1 ± 1 | 36.5 ± 4 | 26.8 ± 2.1 | 
17 | O=C(NCc1ccccn1)c1cc(-c2c[nH]c3ccccc23)n[nH]1 [Compound 26, 3-(1H-Indol-3-yl)-N-(pyridin-2-ylmethyl)-1H-pyrazole-5-carboxamide] | 35.4 ± 1.8 | > 50 | 34 ± 1.1 | 
18 | O=C(NC1CCN(Cc2ccccc2)CC1)c1cc(-c2c[nH]c3ccccc23)n[nH]1 [Compound 27, N-(1-Benzylpiperidin-4-yl)-3-(1H-indol-3-yl)-1H-pyrazole-5-carboxamide] | 6.8 ± 0.7 | 8.6 ± 0.2 | 8.9 ± 0.7 | 
19 | O=C(c1cc(-c2c[nH]c3ccccc23)n[nH]1)N1CCN(c2ccc(C(F)(F)F)cc2)CC1 [Compound 28, (3-(1H-Indol-3-yl)-1H-pyrazol-5-yl)(4-(4-(trifluoromethyl)phenyl)piperazin-1yl)methanone] | 16.2 ± 3.2 | 16.1 ± 1.7 | 27.6 ± 2.4 | 
20 | O=C(c1cc(-c2c[nH]c3ccccc23)n[nH]1)N1CCN(Cc2ccc(C(F)(F)F)cc2)CC1 [Compound 29, (3-(1H-Indol-3-yl)-1H-pyrazol-5-yl)(4-(4-(trifluoromethyl)benzyl)piperazin-1-yl)methanone] | 1.7 ± 1.8 | 3 ± 0.8 | 4.1 ± 2 | 
21 | CNC(=O)c1cc(Oc2ccc(NC(=O)Nc3ccc(Cl)c(C(F)(F)F)c3)cc2)ccn1 [Sorafenib, sorafenib, reference compound] | 6.5 ± 0.7 | 13.8 ± 1.2 | 12 ± 0.6 | IC50 (Huh7 [1]; [9]): 6.5 ± 0.7 µM; IC50 (HepG2): 4.4 ± 0.8 µM; IC50 (Mahlavu [2]): 8.3 ± 1 µM; IC50 (SNU475): 9.6 ± 0.5 µM
